Paper PMC8998978, “Toward a Treatment of Cancer: Design and In Vitro/In Vivo Evaluation of Uncharged Pyrazoline Derivatives as a Series of Novel SHP2 Inhibitors” (International Journal of Molecular Sciences, 2022)

Tests used:
[1] = biological target: T1, recombinant human SHP2 protein (Homo sapiens, UniProt Q06124); test: SHP2 inhibition assay (pNPP substrate); type: biochemical; settings: pNPP 4 mM, SHP2 240 nM, 37 °C, 30 min; means ± SD
T1 sequence (Q06124 1-593): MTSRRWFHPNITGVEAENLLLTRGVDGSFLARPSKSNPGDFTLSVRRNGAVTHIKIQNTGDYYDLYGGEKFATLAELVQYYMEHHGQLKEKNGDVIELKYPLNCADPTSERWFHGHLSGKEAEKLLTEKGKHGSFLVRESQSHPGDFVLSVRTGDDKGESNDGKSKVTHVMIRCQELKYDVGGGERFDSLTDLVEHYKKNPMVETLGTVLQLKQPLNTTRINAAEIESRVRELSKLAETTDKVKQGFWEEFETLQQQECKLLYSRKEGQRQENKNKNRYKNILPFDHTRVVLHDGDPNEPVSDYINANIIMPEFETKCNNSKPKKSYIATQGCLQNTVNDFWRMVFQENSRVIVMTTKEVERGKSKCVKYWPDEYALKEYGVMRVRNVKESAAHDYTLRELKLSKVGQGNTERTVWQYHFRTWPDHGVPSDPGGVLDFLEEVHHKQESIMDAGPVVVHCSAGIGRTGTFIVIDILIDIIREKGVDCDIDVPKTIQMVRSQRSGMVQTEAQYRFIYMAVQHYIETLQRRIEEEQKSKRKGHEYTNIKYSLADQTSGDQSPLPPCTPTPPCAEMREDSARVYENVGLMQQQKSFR
Method: pGEX-4T1 SHP2 WT (plasmid #8322) was purchased from Addgene. […] Then, 0.2 mM IPTG (Sangon Biotech, Shanghai, China) was added to induce the expression of protein at 30 °C for 4 h followed by centrifugation and cells collection. Cells were then broken by ultrasound in lysis buffer (20 mM Tris–HCl (pH 8.0), 100 mM KCl, 10% glycerol, 1 mM DTT, 0.5% Triton X-100) on ice. The supernatant was collected by centrifugation at 10,000× g for 15 min at 4 °C. The BeaverBeads GSH (Beaver Biosciences Inc., Guangzhou, China) washed by lysis buffer were incubated with the supernatant for 2 h at 4 °C. […] Then, the experiment was performed in a final volume of 100 μL containing 10 mM Tris–HCl (pH 7.5), 25 mM NaCl, 1 mM EDTA and 4 mM pNPP in a 96-well plate at 37 °C for 30 min. The amount of product p-nitrophenol was determined by the absorbance at 405 nm in a multimode reader (Berthold Technologies GmbH & Co.KG, Bad Wildbad, Baden Württemberg, Germany). The IC50 value was calculated by GraphPad Prism 7.0 software (GraphPad Inc, San Diego, CA, USA).

[2] = test system: K562 cells; test: Cell viability assay (MTT); type: cell-based; settings: Homo sapiens, K562, 72 h
Excerpt: Human colon cancer cell line HCT116, hepatoma cell lines HepG2 and BEL-7402, lung adenocarcinoma cell lines NCI-H1975 and 95-D, pancreatic cancer cell line Panc-1, breast cancer cell line MDA-MB-231, NSCLC cell line NCI-H1299, ovarian cancer cell line SK-OV-3, leukemia cell line K562, glioma cell line U87, colon epithelial cell line NCM460 and umbilical vein endothelial cell line HUVEC were purchased from the Institute of Biochemistry and Cell Biology, Chinese Academy of Sciences (Shanghai, China). HCT116 cell line was cultured in McCoy’s 5A medium (Hyclone, Logan, UT, USA). HepG2, 95-D, Panc-1, MDA-MB-231, BEL-7402, SK-OV-3, U87 and NCM460 cell lines were cultured in DMEM-High glucose medium (Hyclone, Logan, UT, USA). NCI-H1975, NCI-H1299 and HUVEC cell lines were cultured in RPMI 1640 medium (Hyclone, Logan, UT, USA). K562 cell line was cultured in IMDM medium (Hyclone, Logan, UT, USA). […]
The inhibition rate of cell viability was detected by 3-(4,5-dimethyl-2-thiazolyl)-2,5-diphenyl-2-H-tetrazolium bromide (MTT, Solarbio, Beijing, China) or Sulforhodamine B (SRB, Sigma-Aldrich, St. Louis, MO, USA) assay. […] The absorbance at 570 nm was measured in a multimode reader (Berthold Technologies, Germany). […] Finally, Tris–HCl solution was added, and the absorbance at 515 nm was detected in a multimode reader (Berthold Technologies, Germany).

[3] = test system: HCT116 cells; test: Colony formation assay; type: cell-based, human; settings: 4o 0.625, 1.25 and 2.5 μM, 8 days
Method: HCT116 cells were seeded in 6-well plates at a density of 500 cells per well. After 24 h, cells were treated with different concentrations of 4o for 8 days. Subsequently, the culture medium was removed and the cells were fixed with methanol for 3 min, and stained with crystal violet (Solarbio, Beijing, China) for 15 min. Finally, colonies were counted and photographed.

[4] = biological target: T2, SHP2 protein in HCT116 cells (Homo sapiens, UniProt Q06124); test: Cellular thermal shift assay (CETSA); type: cell-based; settings: HCT116, 10 μM 4o, 3 h, versus DMSO
T2 construct: endogenous in cells; host or cells: HCT116
T2 sequence (Q06124 1-593): T1 sequence (Q06124 1-593)
Method: The assay was performed as described previously. In brief, HCT116 cells were treated with DMSO or 4o for 3 h. Cells were resuspended in PBS and divided into four aliquots, and then the cell lysates were heated at different temperatures by T100^TM Thermal Cycler (Bio-Rad, Hercules, CA, USA). The heated cells were subjected to repeated freezing and thawing with liquid nitrogen for three times followed by centrifugation at 20,000× g for 20 min at 4 °C. Finally, the supernatants were gathered and boiled for 10 min after adding the loading buffer. Protein levels were assessed by Western blotting.

**Q.** Which results are given for `CCOc1ccc(Oc2ccc(C3=NN(C4=NC(=O)CS4)C(c4cc(O)c(O)c(Br)c4Br)C3)cc2)cc1` (stereo not shown) [Compound 4o, 2-(5-(2,3-dibromo-4,5-dihydroxyphenyl)-3-(4-(4-ethoxyphenoxy)phenyl)-4,5-dihydro-1H-pyrazol-1-yl)thiazol-4(5H)-one]?
**A.** IC50 [1]: 1.56 ± 0.25 µM; IC50 [2]: 9.6 ± 0.68 µM; Colony formation of HCT116 cells [3]: significantly inhibited the colony formation; Stability of SHP2 protein (CETSA) [4]: obviously increased
